Data reported in DBAASP.
≈ marks a conversion by molar mass, not a printed value. One block for each compound: values may come before it.

Assays:
Assay in all cases: ≥ marks a high value that may be exact or a test limit, other limits are often not marked, values filed in µg/mL are converted to µM
[1] = test system: Klebsiella pneumoniae ATCC 700603
Acinetobacter baumannii = test system: Acinetobacter baumannii
[2] = test system: Pseudomonas aeruginosa ATCC 9027
[3] = test system: Staphylococcus aureus ATCC 25923
[4] = test system: Escherichia coli ATCC 25922
[5] = test system: Salmonella enterica subsp. enterica serovar Typhimurium ATCC 14028
[6] = test system: Escherichia coli DH5alpha
[7] = test system: Klebsiella pneumoniae ATCC 10031
[8] = test system: Staphylococcus aureus ATCC 6538
[9] = test system: Acinetobacter baumannii ATCC 19606
[10] = test system: Pseudomonas aeruginosa ATCC 27853
[11] = test system: Candida albicans ATCC 2002
[12] = test system: Pseudomonas aeruginosa PAO1
Bacillus subtilis = test system: Bacillus subtilis
[13] = test system: Escherichia coli ATCC 25726
[14] = test system: Candida albicans ATCC 90028

Structure (SMILES): CC(C)C[C@H](NC(=O)[C@H](C)NC(=O)[C@H](CC(C)C)NC(=O)[C@H](CC(C)C)NC(=O)[C@H](CCCCN)NC(=O)[C@H](CCCCN)NC(=O)[C@H](C)NC(=O)[C@H](CC(C)C)NC(=O)[C@H](CCCCN)NC(=O)[C@H](C)NC(=O)[C@H](CC(C)C)NC(=O)[C@H](CCCCN)NC(=O)[C@H](CCCCN)NC(=O)[C@H](C)NC(=O)[C@@H](N)Cc1ccccc1)C(N)=O [FAKKLAKLAKKLLAL]
MIC [2]: 30.2 µM (≈ 50 µg/mL)
MIC [8]: 3.02 µM (≈ 5 µg/mL)

Structure (SMILES): CC(C)C[C@H](NC(=O)[C@H](C)NC(=O)[C@H](Cc1ccccc1)NC(=O)[C@H](CCCCN)NC(=O)[C@H](CCCCN)NC(=O)[C@H](C)NC(=O)[C@H](CC(C)C)NC(=O)[C@H](CCCCN)NC(=O)[C@H](C)NC(=O)[C@H](CC(C)C)NC(=O)[C@H](CC(C)C)NC(=O)[C@H](CCCCN)NC(=O)[C@H](C)NC(=O)[C@@H](N)Cc1ccccc1)C(N)=O [FAKLLAKLAKKFAL]
MIC [2]: 128 µM (≈ 200 µg/mL)
MIC [8]: 32 µM (≈ 50 µg/mL)

Structure (SMILES): CC(C)C[C@H](NC(=O)[C@H](CC(C)C)NC(=O)[C@H](CCCCN)NC(=O)[C@H](CCCCN)NC(=O)[C@H](CC(C)C)NC(=O)[C@@H](NC(=O)[C@H](CCCCN)NC(=O)[C@H](CC(C)C)NC(=O)[C@@H](N)Cc1ccccc1)[C@@H](C)O)C(N)=O [FLKTLKKLL]
MIC [3]: 58 µM (≈ 63.9 µg/mL)
MIC [4]: 58 µM (≈ 63.9 µg/mL)
MIC [10]: 7.25 µM (≈ 7.99 µg/mL)
MIC [9]: 58 µM (≈ 63.9 µg/mL)

Structure (SMILES): CC(C)C[C@H](NC(=O)[C@@H]1CCCN1C(=O)CNC(=O)[C@@H]1CCCN1C(=O)[C@H](CC(C)C)NC(=O)CN)C(=O)NCC(=O)N1CCC[C@H]1C(=O)N[C@@H](C)C(=O)NCC(=O)N1CCC[C@H]1C(=O)N[C@@H](CCCCN)C(=O)O [GLPGPLGPAGPK]
MIC [8]: 1330 µM (≈ 1410 µg/mL)

Structure (SMILES): NCCCC[C@H](NC(=O)[C@H](Cc1c[nH]c2ccccc12)NC(=O)CN)C(=O)N[C@@H](CCCN=C(N)N)C(=O)N[C@@H](CCCCN)C(=O)N[C@@H](CCCN=C(N)N)C(=O)N[C@@H](Cc1ccccc1)C(=O)NCC(=O)O [GWKRKRFG]
MIC [6]: ≥ 200 µM
MIC [3]: > 200 µM
MIC [10]: > 200 µM
MIC (Bacillus subtilis): ≥ 200 µM

Structure (SMILES): CC[C@H](C)[C@@H]1NC(=O)[C@H](CCSC)NC(=O)[C@@H]2CCCN2C(=O)[C@@H]2CCCN2C(=O)[C@@H](NC(=O)[C@@H](N)Cc2c[nH]c3ccccc23)CSSC[C@@H](C(=O)N[C@@H](CO)C(=O)N[C@@H](CCCN=C(N)N)C(=O)N[C@@H](Cc2ccccc2)C(N)=O)NC(=O)[C@H](CC(C)C)NC(=O)[C@@H]2CCCN2C1=O [WCPPMIPLCSRF]
MIC [13]: ≥ 200 µM
MIC [3]: > 200 µM

Second part, the compound after the results:

MIC [1]: 25 µM (≈ 45.6 µg/mL)
MIC (Acinetobacter baumannii): 3.12 µM (≈ 5.69 µg/mL)
MIC [2]: 3 µM (≈ 5.47 µg/mL)
MIC [3]: 12 µM (≈ 21.9 µg/mL)
MIC [4]: 12.5 µM (≈ 22.8 µg/mL)
Structure (SMILES): CC[C@H](C)[C@H](NC(=O)[C@H](C)N)C(=O)N[C@@H](Cc1c[nH]c2ccccc12)C(=O)N[C@@H](CCCN=C(N)N)C(=O)N[C@@H](CCCCN)C(=O)N[C@@H](C)C(=O)N[C@H](C(=O)N[C@@H](CCCN=C(N)N)C(=O)N[C@@H](CCCN=C(N)N)C(=O)N[C@@H](CC(C)C)C(=O)N[C@H](C(=O)N[C@@H](CCCCN)C(=O)N[C@@H](CC(C)C)C(=O)N[C@H](C(=O)N[C@H](C(N)=O)C(C)C)[C@@H](C)CC)C(C)C)[C@@H](C)O [AIWRKATRRLVKLIV]

MIC [5]: > 46 µM
MIC [6]: ≥ 46 µM
MIC [7]: ≥ 46 µM
Structure (SMILES): CC[C@H](C)[C@@H]1NC(=O)[C@H](CCCCN)NC(=O)[C@@H](NC(=O)[C@@H](NC(=O)[C@@H](NC(=O)[C@@H](NC(=O)[C@@H]2CCCN2C(=O)[C@H](CC(C)C)NC(=O)[C@H](Cc2ccccc2)NC(=O)[C@H](CC(N)=O)NC(=O)[C@H](C)NC(=O)[C@H](C)NC(=O)[C@H](CC(C)C)NC(=O)CNC(=O)[C@H](C)NC(=O)[C@@H](N)Cc2ccccc2)[C@@H](C)O)[C@@H](C)CC)[C@@H](C)CC)CSSC[C@@H](C(=O)O)NC(=O)[C@H](CCCCN)NC(=O)[C@H](Cc2ccc(O)cc2)NC(=O)[C@H](CO)NC1=O [FAGLAANFLPTIICKISYKC]

MIC [9]: > 26.6 µM
Structure (SMILES): CC[C@H](C)[C@H](NC(=O)CNC(=O)[C@H](CCCCN)NC(=O)[C@H](CC(C)C)NC(=O)[C@@H](N)Cc1ccccc1)C(=O)N[C@H](C(=O)N[C@@H](CC(=O)O)C(=O)N[C@H](C(=O)N[C@H](C(=O)N[C@@H](CO)C(=O)N[C@@H](CC(N)=O)C(=O)N[C@@H](Cc1c[nH]c2ccccc12)C(=O)N[C@@H](CC(C)C)C(N)=O)C(C)C)[C@@H](C)O)[C@@H](C)CC [FLKGIIDTVSNWL]

MIC [11]: 4.68 µM (≈ 8.26 µg/mL)
MIC [3]: 2.66 µM (≈ 4.69 µg/mL)
MIC [10]: 2.66 µM (≈ 4.69 µg/mL)
MIC [12]: 2.66 µM (≈ 4.69 µg/mL)
MIC (Bacillus subtilis): 5.32 µM (≈ 9.37 µg/mL)
Structure (SMILES): CC[C@H](C)[C@H](NC(=O)CNC(=O)[C@H](CO)NC(=O)[C@H](CC(C)C)NC(=O)[C@H](C)NC(=O)CNC(=O)[C@H](CC(C)C)NC(=O)[C@@H](NC(=O)[C@H](CC(C)C)NC(=O)[C@@H]1CCCN1C(=O)[C@H](CC(C)C)NC(=O)[C@@H](N)Cc1ccccc1)C(C)C)C(=O)N[C@@H](CC(C)C)C(=O)N1CCC[C@H]1C(=O)N[C@@H](CCCCN)C(=O)N[C@H](C(=O)N[C@@H](CC(C)C)C(N)=O)[C@@H](C)CC [FLPLVLGALSGILPKIL]

MIC [13]: ≥ 128 µM
MIC [3]: 64 µM (≈ 85.9 µg/mL)
Structure (SMILES): CC(C)C[C@H](NC(=O)[C@H](CC(C)C)NC(=O)CNC(=O)[C@H](CO)NC(=O)[C@H](CC(C)C)NC(=O)[C@H](CC(C)C)NC(=O)CNC(=O)[C@@H](NC(=O)[C@@H](NC(=O)[C@H](CC(C)C)NC(=O)[C@@H]1CCCN1C(=O)[C@H](CC(C)C)NC(=O)[C@@H](N)Cc1ccccc1)C(C)C)[C@@H](C)O)C(N)=O [FLPLVTGLLSGLL]

MIC [14]: ≥ 80 µM
MIC [13]: 20 µM (≈ 57.4 µg/mL)
MIC [1]: 20 µM (≈ 57.4 µg/mL)
MIC [3]: 20 µM (≈ 57.4 µg/mL)
MIC [10]: 20 µM (≈ 57.4 µg/mL)
Structure (SMILES): CC[C@H](C)[C@H](N)C(=O)N[C@@H](CCCCN)C(=O)N[C@H](C(=O)N1CCC[C@H]1C(=O)N[C@@H](C)C(=O)N[C@@H](Cc1ccccc1)C(=O)N[C@H](C(=O)N[C@@H](CCCCN)C(=O)N[C@@H](CC(=O)O)C(=O)N[C@H](C(=O)N[C@@H](CC(C)C)C(=O)N[C@@H](CCCCN)C(=O)N[C@@H](CCCCN)C(=O)N[C@H](C(=O)N[C@@H](C)C(=O)N[C@@H](CCCCN)C(=O)NCC(=O)N[C@H](C(=O)N[C@H](C(=O)N[C@@H](CO)C(=O)N[C@@H](C)C(=O)N[C@H](C(=O)N[C@@H](C)C(=O)NCC(=O)N[C@@H](C)C(=O)N[C@@H](CC(C)C)C(=O)N[C@H](C(=O)N[C@@H](CCC(N)=O)C(=O)O)[C@@H](C)O)C(C)C)[C@@H](C)CC)C(C)C)C(C)C)[C@@H](C)O)C(C)C)[C@@H](C)CC [IKIPAFVKDTLKKVAKGVISAVAGALTQ]

MIC [14]: ≥ 160 µM
MIC [13]: ≥ 40 µM
MIC [3]: 80 µM (≈ 229 µg/mL)
Structure (SMILES): CC[C@H](C)[C@H](N)C(=O)N[C@@H](CCCCN)C(=O)N[C@H](C(=O)N1CCC[C@H]1C(=O)N1CCC[C@H]1C(=O)N[C@H](C(=O)N[C@H](C(=O)N[C@@H](CCCCN)C(=O)N[C@@H](CC(=O)O)C(=O)N[C@H](C(=O)N[C@@H](CC(C)C)C(=O)N[C@@H](CCCCN)C(=O)N[C@@H](CCCCN)C(=O)N[C@H](C(=O)N[C@@H](C)C(=O)N[C@@H](CCCCN)C(=O)NCC(=O)N[C@H](C(=O)N[C@@H](CC(C)C)C(=O)N[C@@H](CO)C(=O)N[C@H](C(=O)N[C@H](C(=O)N[C@@H](C)C(=O)NCC(=O)N[C@@H](C)C(=O)N[C@@H](CC(C)C)C(=O)N[C@@H](CO)C(=O)N[C@H](C(=O)O)[C@@H](C)O)[C@@H](C)CC)[C@@H](C)O)C(C)C)C(C)C)[C@@H](C)O)C(C)C)[C@@H](C)CC)[C@@H](C)CC [IKIPPIVKDTLKKVAKGVLSTIAGALST]

MIC [11]: 0.84 µM (≈ 2.34 µg/mL)
MIC [3]: 13.4 µM (≈ 37.5 µg/mL)
MIC [4]: 3.36 µM (≈ 9.38 µg/mL)
MIC (Bacillus subtilis): 13.4 µM (≈ 37.5 µg/mL)
Structure (SMILES): CC[C@H](C)[C@H](NC(=O)[C@H](C)NC(=O)[C@H](CCCN=C(N)N)NC(=O)[C@H](Cc1ccc(O)cc1)NC(=O)[C@H](CC(C)C)NC(=O)[C@H](CC(N)=O)NC(=O)[C@H](Cc1ccc(O)cc1)NC(=O)CNC(=O)[C@H](C)NC(=O)[C@@H](NC(=O)[C@@H](NC(=O)[C@@H](NC(=O)[C@H](CCCN=C(N)N)NC(=O)[C@@H](NC(=O)[C@@H](NC(=O)[C@@H](NC(=O)[C@@H]1CCCN1C(=O)[C@H](Cc1c[nH]c2ccccc12)NC(=O)[C@H](Cc1ccccc1)NC(=O)[C@H](CCCN=C(N)N)NC(=O)[C@H](CCCCN)NC(=O)[C@@H](NC(=O)[C@@H](N)CCCN=C(N)N)[C@@H](C)CC)C(C)C)C(C)C)[C@@H](C)CC)[C@@H](C)O)C(C)C)C(C)C)C(=O)O [RIKRFWPVVIRTVVAGYNLYRAI]
